Measured values as given in ChEMBL document CHEMBL1806482, “Flavans from Iris tenuifolia and their effects on β-amyloid aggregation and neural stem cells proliferation in vitro” (Bioorg Med Chem Lett, 2011).
Active and inactive are the calls of the source. The calls are words filed in the database; no cut-off is given here.

Assays:
[1] = Inhibition of amyloid beta (1 to 40) aggregation after 30 mins by thioflavin T fluorescence assay
NSC = test: Induction of NSC proliferation assessed as ATP level; assay type: functional, cell-based

Row | SMILES | inhibition [1] | Activity (NSC)
1 | C[C@H]1COC2=C1C(=O)C(=O)c1c2ccc2c1CCCC2(C)C | 43.7% | –
2 | O=C1CC(c2cccc(O)c2O)Oc2cc3c(c(O)c21)OCO3 (stereo not given) | 61.7% | Active
3 | COc1cc(OC)c2c(c1)O[C@H]1C[C@@H]2Oc2c(O)cccc21 | 19.8% | inactive
